Series [1] has as its system human p40. The series is described as follows: Gene expression of p40 in LPS-stimulated MonoMac6 cells (real-time RT-PCR). The class given is cell-based. The following applies: MONO-MAC-6, p40 mRNA, LPS 100 ng/ml 4 h; for inhibition at 150 µM: MonoMac6, compound 150 μM (maximum soluble concentration); for inhibition at 75 µM: MonoMac6, compound 75 μM (maximum soluble concentration). As to the method:
The capacity of the compounds to inhibit the expression of p40 by lipopolysaccharide (LPS)-stimulated MonoMac6 cells was evaluated. The cells were placed in 96-well plates at a concentration of 50 000 cells/well. The compounds were tested at the maximum soluble concentration given in Table 4 (in the range 30-300 μM) and incubated for 1 hour. The cells were then stimulated with LPS (100 ng/ml) for 4 hours.
(§1) The total RNA was extracted from the cell pellet using the RNeasy mini kit (Qiagen), reverse-transcribed with the TaqMan Reverse transcription reagents synthesis kit (Applied Biosystems) and the cDNA obtained was used for the real-time PCR reaction. The amplification was obtained in 96-well plates using the ABI Prism 7000 sequence detection system (Applied Biosystems), by applying the following temperature profile: 50° C. for 2 minutes, 95° C. for 10 minutes and 45 cycles at 95° C. for 15 seconds and 60° C. for 1 minute. For the amplification, a set of primers and probe specific for human p40 was used (Applied Biosystems, RefSeq NM_002187.2). A set of primers and probe for β-actin was used in separate wells as an internal control of the samples for the purposes of normalization. Once the reaction had taken place, the fluorescence data were analysed using the ABI Prism 7000 SDS software, by calculating the threshold cycle (Ct) for each sample and subsequently performing a relative quantification via the ΔΔCt method.
The results obtained, expressed as a percentage of inhibition, are collated in Table 4 below.
(Quantitative PCR measures a nucleic acid by following its amplification.)

Series [2] relates to human CX3CR1. The series is described as follows: Gene expression of CX3CR1 in LPS-stimulated MonoMac6 cells (real-time RT-PCR). The settings on record: MONO-MAC-6, CX3CR1 mRNA, LPS 100 ng/ml 20 h; for inhibition at 300 µM: MonoMac6, compound 300 μM (maximum soluble concentration); for inhibition at 150 µM: MonoMac6, compound 150 μM (maximum soluble concentration); for inhibition at 75 µM: MonoMac6, compound 75 μM (maximum soluble concentration). The class given is cell-based. As to the method:
as §1, with “The capacity of the compounds to inhibit the expression of CX3CR1 by lipopolysaccharide (LPS)-stimulated MonoMac6 cells was evaluated. The cells were placed in 96-well plates at a concentration of 50 000 cells/well. The compounds were tested at the maximum soluble concentration given in Table 3 (in the range 30-300 μM) and incubated for 1 hour. The cells were then stimulated with LPS (100 ng/ml) for 20 hours. The total” for “The total”, “for human CX3CR1 was used” for “for human p40 was used”, “Biosystems, RefSeq NM_001337.3). A set” for “Biosystems, RefSeq NM_002187.2). A set”, “ΔΔCt method. The results obtained, expressed as a percentage of inhibition, are collated in Table 3 below.” for “ΔΔCt method.”

Series [3] has as its system MCP-1. The series is described as follows: Production of MCP-1 protein by LPS-stimulated MonoMac6 cells (ELISA). The following applies: Homo sapiens, MONO-MAC-6, MCP-1 protein in supernatant (ELISA), LPS 100 ng/ml 20 h; for inhibition at 300 µM: MonoMac6, compound 300 μM (maximum soluble concentration); for inhibition at 150 µM: MonoMac6, compound 150 μM (maximum soluble concentration); for inhibition at 75 µM: MonoMac6, compound 75 μM (maximum soluble concentration); for inhibition at 30 µM: MonoMac6, compound 30 μM (maximum soluble concentration). The class given is cell-based. As to the method:
The capacity of the compounds to inhibit the expression of the protein MCP-1 by lipopolysaccharide (LPS)-stimulated MonoMac6 cells was evaluated. The cells were placed in 96-well plates at a concentration of 50 000 cells/well. The compounds were tested at the maximum soluble concentration given in Table 2 (in the range 30-300 μM) and incubated for 1 hour. The cells were then stimulated with LPS (100 ng/ml) for 20 hours.
The amount of MCP-1 produced was measured in the supernatants, suitably diluted with buffer, by means of an immunoenzymatic test (ELISA) using a commercial kit (ELISA MCP-1/JE, R&D Systems).
The results obtained, expressed as a percentage of inhibition, are collated in Table 2 below.
For orientation: In an ELISA, binding on a coated surface is turned into a signal by an enzyme label.

Series [4] concerns human MCP-1. The series is described as follows: Gene expression of MCP-1 in LPS-stimulated MonoMac6 cells (real-time RT-PCR). The format is cell-based. The settings on record: MONO-MAC-6, MCP-1 mRNA, 1 h preincubation, LPS 100 ng/ml 4 h; for inhibition at 300 µM: MonoMac6, compound 300 μM (maximum soluble concentration); for inhibition at 150 µM: MonoMac6, compound 150 μM (maximum soluble concentration); for inhibition at 75 µM: MonoMac6, compound 75 μM (maximum soluble concentration). As to the method:
The capacity of the compounds to inhibit the expression of MCP-1 by lipopolysaccharide (LPS)-stimulated MonoMac6 cells was evaluated. The cells were placed in 96-well plates at a concentration of 50 000 cells/well. The compounds were tested at the maximum soluble concentration given in Table 1 (in the range 30-300 μM) and incubated for 1 hour. The cells were then stimulated with LPS (100 ng/ml) for 4 hours.
as §1, with “MCP-1” for “p40”, “NM_002982.3).” for “NM_002187.2).”
The results obtained, expressed as a percentage of inhibition, are collated in Table 1 below.

Setting [5] is: MonoMac6, compound 30 μM (maximum soluble concentration).

As a reminder, the inhibition is how much of the control response was suppressed. Read a high inhibition as a response far below the control. A word on the melting point: it is the temperature of the solid-liquid transition. Take `CC(C)(OCc1nn(Cc2ccccc2)c2ccccc12)C(N)=O` [Compound 9, 2-[(1-benzyl-1H-indazol-3-yl)methoxy]-2-methylpropanamide]: the melting point lay within 111 to 112 °C. Also, in series [1] (MonoMac6, compound 300 μM (maximum soluble concentration)), at 300 µM the inhibition was 96%. Moreover, in series [2], the inhibition at 300 µM worked out at 99%. This molecule registered an inhibition at 300 µM in series [3] of 98%. 300 µM produced 99% inhibition in series [4].

Turning to `CC(C)(OCc1nn(Cc2ccccc2)c2ccccc12)C(=O)NO` [Compound 10, 2-[(1-benzyl-1H-indazol-3-yl)methoxy]-N-hydroxy-2-methylpropanamide], the melting point lay in the range of 115 to 116 °C. In series [1], this molecule registered an inhibition at 150 µM of 54%. Moreover, the inhibition at 150 µM in series [2] amounted to 95%. Testing at 150 µM in series [3] gave an inhibition of 91%. The inhibition at 150 µM in series [4] was 61%.

For `CC(C)(OCc1nn(Cc2ccccc2)c2ccccc12)C(=O)NN` [Compound 11, 2-[(1-benzyl-1H-indazol-3-yl)methoxy]-2-methylpropanohydrazide], the melting point was in the range of 92 to 93 °C. The molecule also displayed an inhibition at 150 µM in series [1] of 44%. Besides, the inhibition at 150 µM in series [2] stood at 90%. The molecule also had an inhibition at 150 µM in series [3] of 79%. The same molecule displayed an inhibition at 150 µM in series [4] of 68%.

On to `CC(C)(OCc1nn(Cc2ccccc2)c2ccccc12)C(=O)NNC(N)=O` [Compound 12, 2-{2-[(1-benzyl-1H-indazol-3-yl)methoxy]-2-methylpropanoyl}hydrazinecarboxamide], for which the inhibition at 300 µM in series [2] was 83%; in series [3], 48%; in series [4] it was 20%.

On to `CN(C)CCNC(=O)C(C)(C)OCc1nn(Cc2ccccc2)c2ccccc12.Cl` [Compound 13, 2-[(1-benzyl-1H-indazol-3-yl)methoxy]-N-[2-(dimethylamino)ethyl]-2-methylpropanamide hydrochloride], for which the melting point lay within 136 to 137 °C. Moreover, in series [1], the inhibition at 75 µM came out at 59%. The molecule further displayed an inhibition at 75 µM in series [2] of 100%. For the same molecule, in series [3], the inhibition at 75 µM is 74%. The inhibition at 75 µM in series [4] was 72%.

For `CC(C)(OCc1nn(Cc2ccccc2)c2ccccc12)C(=O)Nc1ccccn1` [Compound 14, 2-[(1-benzyl-1H-indazol-3-yl)methoxy]-2-methyl-N-pyrid-2-ylpropanamide], the melting point was in the range of 121 to 122 °C. The inhibition at 30 µM in series [1] (setting [5]) worked out at 27%. Further, the inhibition at 30 µM in series [2] (setting [5]) worked out at 44%. This molecule yielded an inhibition at 30 µM in series [3] of 70%. The molecule further had an inhibition at 30 µM in series [4] (setting [5]) of 49%.

On to `CN1CCN(C(=O)C(C)(C)OCc2nn(Cc3ccccc3)c3ccccc23)CC1` [Compound 15, 1-benzyl-3-{[1,1-dimethyl-2-(4-methylpiperazin-1-yl)-2-oxoethoxy]methyl}-1H-indazole], for which the melting point was 97 to 98 °C. In series [1], this molecule displayed an inhibition at 75 µM of 33%. The same molecule registered an inhibition at 75 µM in series [2] of 89%. This molecule also yielded an inhibition at 75 µM in series [3] of 59%. Also, the inhibition at 75 µM in series [4] was 40%.

Molecule `CC(C)(OCc1nn(Cc2ccccc2)c2ccccc12)C(=O)NNc1ccccc1` [Compound 27, 2-[(1-benzyl-1H-indazol-3-yl)methoxy]-2-methyl-N′-phenylpropanohydrazide] came in with a melting point of 124 to 125 °C. In addition, testing at 30 µM in series [3] gave an inhibition of 82%.

These data come from patent US8283348B2, “1-benzyl-3-hydroxymethylindazole derivatives and use thereof in the treatment of diseases based on the expression of MCP-1, CX3CR1 and p40” (Aziende Chimiche Riunite Angelini Francesco A.C.R.A.F. …, priority 2008, dated 2012).
